What all share (format): in vivo, rat
For assay [1], the system named is self-sustaining status epilepticus (SSSE). The assay is described as follows: Experiment 1a: SSSE after electrical stimulation of the perforant path (60 min stimulation). Conditions: male Wistar rats, i.v. 10 min after end of 60 min perforant path stimulation; SPM 927 50 mg/kg, PHT 50 mg/kg, DZP 10 mg/kg; vs control. The method, then: (§1) Animals: The experiments were performed on male Wistar rats, 280-300 g (Simonsen Labs, Calif.). Animals were kept at a constant room temperature with 12 hours artificial dark-light cycle with free access to standard diet and tap water.
(§2) Surgery: Under ketamine (60 mg/kg)/xylazine (15 mg/kg) anesthesia, animals were implanted with a bipolar stimulating electrode into the angular bundle of the perforant path (4.5 mm to left lambda, 1 mm anterior to lambdoid fissure) and a bipolar recording electrode into the granule cell layer of the ipsilateral dentate gyrus (3.5 mm anterior to lambda, 2.2 mm left to sagittal fissure). Depth of both electrodes was optimized by monitoring the amplitude and waveform of the population spike evoked from the dentate gyrus by stimuli delivered through the perforant path (single square wave monophasic stimuli, 20 V, 0.1 ms delivered every 10 s).
(§3) Induction of self-sustaining status epilepticus (SSSE): Seven days after surgery, animals were connected to a Cardionics 16 channel preamplifier, which was connected to the IBM computer. After 5 minutes of baseline EEG recording, animals were stimulated in the awake state for 60 minutes (Experiment 1a) or 30 minutes (Experiments 1b and 1c) with 10 s 20 Hz trains (1 ms square wave, 20 V) delivered every minute, together with 2 Hz continuous stimulation with the same parameters.
(§4) EEG monitoring and analysis: EEG from the dentate gyrus was monitored and recorded by means of commercial software (Monitor 8.1 from Stellate Systems). The software was configured for automatic detection and saving of spikes and seizures. Monitoring was performed for 24 hrs. EEG was analyzed off line by means of the same software. Spike distribution was presented as number of spikes per 10 min epoch, and the cumulated duration of seizures for 24 hrs of monitoring were calculated. Statistical analysis was performed by means of T-test. A p value less than 0.05 was considered statistically significant.
(§5) Drug administration: SPM 927 (50 mg/kg, 5 animals), phenyloin (PHT) (50 mg/kg), fosphenyloin (F-PTH, Parke-Davis, 50 mg/kg of phenyloin equivalent, 5 animals), diazepam (DZP) (10 mg/kg) or vehicle (VEH, 10% DMSO, 6 animals) were given i.v. 10 min after the end of perforant path stimulation in a volume of 1 ml/kg.

The test system is the same in assay [2]. As to the kind of experiment: Experiment 1b: SSSE after electrical stimulation of the perforant path (30 min stimulation), SPM 927 vs fosphenyloin. As to conditions: male Wistar rats, 50 mg/kg i.v. 10 min after end of 30 min stimulation; for spike frequency (number of spikes/10 min): vs control. The method, then:
as §1, §2, §3, §4, §5

In assay [3] the test system is hippocampal damage following SSSE. As to the kind of experiment: Experiment 1c: hippocampal damage following SSSE (damaged neuron score). Conditions: for hippocampal damage score, CA1 / hippocampal damage score, CA3 / hippocampal damage score, Hilus / hippocampal damage score, Subiculum: scale 0-5, brains collected 72 hours after SSSE. The method, then: as §1, §2, §3, §5
Collection of tissue: Brains were collected 72 hours after SSSE. This was accomplished by transcardial perfusion with first heparinized normal saline for about 2 minutes to largely clear the vasculature of blood and second by phosphate buffered formaldehyde (10% formaldehyde at pH 7.4) for 10 to 15 min (approximately 50 to 60 ml). Carcasses were placed in the refrigerator overnight to further firm the tissue and the brains were dissected from the heads the following day.
Preparation of brain sections for light microscopy: after Removal, the Brains were passed through a graded series of alcohol and clearing agent (Hemo-De, Fisher) and then embedded in paraffin. Serial 8 micron-thick coronal sections were cut from the embedded tissue at approximately 100 micron intervals and float mounted onto microscope slides. The sections were stained with hematoxylin and eosin and coverslipped.
Selection of sections for counting: Selection of sections for counting was controlled by the stereotaxic atlas for rats (Paxinos and Watson). The 3 sections selected for quantitation contained dorsal hippocampus and were 1.6±0.05 mm posterior to bregma.
Location of counting fields—damage to the pyramidal cell layer was assessed by counting damaged neurons in the subiculum, CA1, CA3, CA3c and the hilus in the dorsal hippocampus. The neurons were assessed individually from the beginning of the subiculum to the end of the CA3c region using an Olympus Provis Ax 70 microscope at a magnification of 40×. The CA3-CA3c transition was defined by a line connecting the extremeties of the blades of the dentate gyrus. The hilus was defined as the space located between the blades of the dentate gyrus, excluding the line of CA3c pyramids.
Criteria for differentiation of damaged versus non-damaged neurons—neurons were counted only if the majority of the nucleus was present in the section. Damaged neurons were counted if they were distinctly eosinophilic or distinctly pyknotic or both. All other cells with most of the nucleus present in the section (and counting field) were counted as not damaged. Each brain was assessed on left side and right side individually and also combined. The counting fields were individually divided into subiculum, CA1, CA3, CA3c and hilus. […]

Assay [4] deals with generalized tonic-clonic seizures (GTCS) in chemically induced SSSE. The assay is described as follows: Experiment 2: chemically induced SSSE (cobalt/homocysteine thiolactone). Conditions: for mean # GTCS: Sprague-Dawley rats. The method, then:
Male Sprague-Dawley rats were prepared surgically with cobalt powder on the left frontal cortical surface.
Recording and stimulation protocol: Four epidural recording electrodes were arranged in a square grid (5 mm) over the cobalt lesion. EEG was monitored daily beginning 4-5 days following surgery. Status epilepticus was induced by i.p. injection of 5.5 mmol/kg homocysteine thiolactone whenever focal motor behaviour and EEG seizures were observed.
Drug administration: SPM 927 was administered (10-100 mg/kg) immediately following the second generalized tonic-clonic seizure (GTCS) occurring after homocysteine thiolactone injection.

The mark [5] stands for this setting: 10 mg/kg, 30 min following treatment.
Where [6] appears, read: 20 mg/kg, 30 min following treatment.
Where [7] appears, read: 40 mg/kg, 30 min following treatment.
Setting [8] is: 80 mg/kg, 30 min following treatment.

Consider `COC[C@@H](NC(C)=O)C(=O)NCc1ccccc1` [SPM 927, (R)-2-acetamido-N-benzyl-3-methoxypropionamide], for which, in assay [1], the “cumulative seizure duration over the 24 h period” value was “potently and significantly reduced”. In assay [1], the “time to the last seizure” value was “potently and significantly reduced”. The “seizure recurrence over the next 24 hrs” value in assay [2] is “did not recur”. Further, the “time during which a few single spikes were recorded” value in assay [2] is on record as “about 12 hrs”. In addition, the “time until seizures stopped after injection” value in assay [2] was at most 15 min. The “spike frequency (number of spikes/10 min)” value in assay [2] is given as “significantly decreased”. The “hippocampal damage score, CA1” value in assay [3] (Contralateral) was determined as 1.2 ± 0.4; in assay [3] (Ipsilateral), 1.0 ± 0.0. Besides, the “hippocampal damage score, CA3” value in assay [3] (Contralateral) and in assay [3] (Ipsilateral) was 1.0 ± 0.0 in each case. The “hippocampal damage score, Hilus” value is on record as 1.4 ± 0.5 in assay [3] (Contralateral) and 1.2 ± 0.4 in assay [3] (Ipsilateral). In addition, the “hippocampal damage score, Subiculum” value in assay [3] (Contralateral) and in assay [3] (Ipsilateral) was 1.0 ± 0.0 throughout. In addition, the “injured neurons in any hippocampal field” value in assay [3] (treated rats following SSSE) is reported as “only an occasional injured neuron”. For the same molecule, the “interval to 1st GTCS” value in assay [4] (10 mg/kg) was 6.6 min; in assay [4] (20 mg/kg), 8.9 min; in assay [4] (40 mg/kg), 5.6 min; in assay [4] (80 mg/kg), 14.0 min. Moreover, the “# rats with GTCS” value is given as 8/8 in assay [4] (setting [5]); 7/8 in assay [4] (setting [6]); 4/8 in assay [4] (setting [7]); 3/8 in assay [4] (setting [8]); 0/8 in assay [4] (100 mg/kg, 30 min following treatment). Besides, the “mean # GTCS” value in assay [4] (setting [5]) was 4.8; in assay [4] (setting [6]) it was 2.7; in assay [4] (setting [7]), 3.8; in assay [4] (setting [8]), 2.7. Besides, the “number of rats experiencing GTCS” value in assay [4] (10-100 mg/kg, 30 min following treatment) was “reduced in a dose-dependent fashion”.
For the molecule `O=C1NC(=O)C(c2ccccc2)(c2ccccc2)N1` [PHT, phenyloin], in assay [1], the “cumulative seizure duration over the 24 h period” value is “potently and significantly reduced”; the “time to the last seizure” value is “potently and significantly reduced”.
`O=C1NC(c2ccccc2)(c2ccccc2)C(=O)N1COP(=O)(O)O` [Fosphenyloin, fosphenyloin, reference compound]: in assay [2], the “time until seizures stopped after injection” value was at most 15 min and the “spike frequency (number of spikes/10 min)” value was “significantly lower than in control animals but significantly higher than in SPM 927 treated rats”.
On to `CN1C(=O)CN=C(c2ccccc2)c2cc(Cl)ccc21` [DZP, diazepam], for which, in assay [1], the “cumulative seizure duration over the 24 h period” value was “potently and significantly reduced”; the “time to the last seizure” value is “potently and significantly reduced”.

For the origin of these results see patent publication US20090018197A1, “METHODS FOR TREATING STATUS E[…] RELATED CONDITIONS” (priority 2003, published 2009).
